# In US11179445B2, “Pharmaceutical composition and biomaterial comprising fusion peptide in which bone tissue-selective peptide bound to parathyroid hormone (PTH) or fragment thereof” (Nano Intelligent Biomedical Engineering Corporation Co. Ltd., priority 2017, dated 2021):
# Columns and labels:
# [1] = cited from earlier work
# [2] = Concentration of calcium in blood of osteoporosis-induced mice (QuantiChrom calcium assay kit); format: in vivo; conditions: ovariectomized ICR mice; PTH 20 μg/kg daily for 3 months, fusion peptide 80 pg/kg weekly for 6 months
# Protocol: Six week-old ICR mice were anesthetized by intramuscular injection using a mixture of 10 mg/kg of xylazine (Rompun®, Bayer, Korea) and 100 mg/kg of ketamine (Ketalar®, Yuhan Co., Ltd., Korea) and then the ovaries present below the bilateral kidneys were entirely removed carefully. Suturing was performed by an ordinary method and 3 mg/kg of gentamicin (Gentamycin®, JW Pharmaceutical Corporation, Korea) was intramuscularly injected.
# Three months after the ovariectomy, whether or not bone loss occurred was checked. […] The change in bone density was evaluated, as compared with a group not treated with osteoporosis.
# The concentration of calcium in blood was determined using a QuantiChrom™ calcium assay kit (Bioassay Systems, Hayward, Calif.). […] One of the effects of PTH on the human body is to increase the concentration of calcium in blood by affecting bones and kidneys. Therefore, long-term administration of PTH causes side effects that induce hypercalcemia.
Structure (SMILES),half-life ([1]; subcutaneous injection once a day) [h],side effects ([1]; upon use for a long time of 2 years or longer),concentration of calcium in blood [2]
CC[C@H](C)[C@H](NC(=O)[C@H](CCC(=O)O)NC(=O)[C@H](CO)NC(=O)[C@@H](NC(=O)[C@@H](N)CO)C(C)C)C(=O)N[C@@H](CCC(N)=O)C(=O)N[C@@H](CC(C)C)C(=O)N[C@@H](CCSC)C(=O)N[C@@H](Cc1cnc[nH]1)C(=O)N[C@@H](CC(N)=O)C(=O)N[C@@H](CC(C)C)C(=O)NCC(=O)N[C@@H](CCCCN)C(=O)N[C@@H](Cc1cnc[nH]1)C(=O)N[C@@H](CC(C)C)C(=O)N[C@@H](CC(N)=O)C(=O)N[C@@H](CO)C(=O)N[C@@H](CCSC)C(=O)N[C@@H](CCC(=O)O)C(=O)N[C@@H](CCCN=C(N)N)C(=O)N[C@H](C(=O)N[C@@H](CCC(=O)O)C(=O)N[C@@H](Cc1c[nH]c2ccccc12)C(=O)N[C@@H](CC(C)C)C(=O)N[C@@H](CCCN=C(N)N)C(=O)N[C@@H](CCCCN)C(=O)N[C@@H](CCCCN)C(=O)N[C@@H](CC(C)C)C(=O)N[C@@H](CCC(N)=O)C(=O)N[C@@H](CC(=O)O)C(=O)N[C@H](C(=O)N[C@@H](Cc1cnc[nH]1)C(=O)N[C@@H](CC(N)=O)C(=O)N[C@@H](Cc1ccccc1)C(=O)O)C(C)C)C(C)C [Forteo],≤ 1,hypercalcemia and even a high incidence of osteosarcoma,–
"CC[C@H](C)[C@H](NC(=O)[C@H](CCC(=O)O)NC(=O)[C@H](CO)NC(=O)[C@@H](NC(=O)[C@@H](N)CO)C(C)C)C(=O)N[C@@H](CCC(N)=O)C(=O)N[C@@H](CC(C)C)C(=O)N[C@@H](CCSC)C(=O)N[C@@H](Cc1cnc[nH]1)C(=O)N[C@@H](CC(N)=O)C(=O)N[C@@H](CC(C)C)C(=O)NCC(=O)N[C@@H](CCCCN)C(=O)N[C@@H](Cc1cnc[nH]1)C(=O)N[C@@H](CC(C)C)C(=O)N[C@@H](CC(N)=O)C(=O)N[C@@H](CO)C(=O)N[C@@H](CCSC)C(=O)N[C@@H](CCC(=O)O)C(=O)N[C@@H](CCCN=C(N)N)C(=O)N[C@H](C(=O)N[C@@H](CCC(=O)O)C(=O)N[C@@H](Cc1c[nH]c2ccccc12)C(=O)N[C@@H](CC(C)C)C(=O)N[C@@H](CCCN=C(N)N)C(=O)N[C@@H](CCCCN)C(=O)N[C@@H](CCCCN)C(=O)N[C@@H](CC(C)C)C(=O)N[C@@H](CCC(N)=O)C(=O)N[C@@H](CC(=O)O)C(=O)N[C@H](C(=O)N[C@@H](Cc1cnc[nH]1)C(=O)N[C@@H](CC(N)=O)C(=O)N[C@@H](Cc1ccccc1)C(=O)O)C(C)C)C(C)C [PTH, reference compound]",–,–,increased the concentration of calcium at one month
